Experimental data reported in patent publication US8309593B2, “2-acylaminopropoanol-type glucosylceramide synthase inhibitors” (Genzyme Corporation, priority 2008, dated 2012).
pIC50: −log10 of the molar value.

What follows are compounds tested on GM3 (assay: GM3 Elisa assay). Conditions: 48 h, Table 1; B16-FO cells, 2 days with compound; read-out: IC50_uM_Mean.
Assay type: cell-based
Description: B16-FO cells from ATCC (American Tissue Culture Collection) were grown in DMEM media (ATCC) with 10% Fetal Bovine Serum (Hyclone) and Pen/Step/Glutamine (Biowhittaker). 4000 cells per well were plated on collagen coated plates (BD) and allowed to attach for 6 hours in an incubator (37 degrees, 5% CO2). After 6 hours the compounds and controls were added to the wells, the plates mixed and returned to the incubator for 2 days. Day of assay the cells were fixed for 20 minutes with 1% formaldehyde and then washed with Tris Buffered Saline (TBS) 3 times, 150 μl of TBS was left in the wells and 50 μl of goat serum (Invitrogen) was added, the plates mixed and incubated for 1 hour at room temperature. The plates were flicked and the cells incubated with the monoclonal Antibody to GM3 (NeuAc) (Cosmo) for 45 minutes as room temperature. The plates were then washed 3 times with TBS, leaving 150 μl of TBS in the wells and Peroxidase AffinPure F (ab′) 2 frag Gt Anti-mouse IgM, μ Chain Specific (Jackson Immuno Research) was added in 50 μl, the plates mixed and incubated for 45 minutes at room temperature. The plates were washed 3 times with TBS, flicked and blotted and 100 μl of Quantablu (Pierce) was added to the wells and incubated for 1 hour then read on a Fluorometer at Ex 325 and Em 420. The data was then analyzed using standard programs.

pIC50	Structure (SMILES)
≥ 7.00	COc1cccc(CNC(=O)N[C@H](CN2CCCC2)[C@H](O)c2ccc3c(c2)OCCO3)c1 [Compound 80, 1-((1R,2R)-1-(2,3-dihydrobenzo[β][1,4]dioxin-6-yl)-1-hydroxy-3-(pyrrolidin-1-yl)propan-2-yl)-3-(3-methoxybenzyl)urea]
≥ 7.00	O=C(CCCc1nc2ccccc2s1)N[C@H](CN1CCCC1)[C@H](O)c1ccc2c(c1)OCCO2 [Compound 101, 4-(benzo[d]thiazol-2-yl)-N-((1R,2R)-1-(2,3-dihydrobenzo[1,4]dioxin-6-yl)-1-hydroxy-3-(pyrrolidin-1-yl)propan-2-yl)butanamide]
6.00 to 7.00	CC(C)(C)c1ccc(C(=O)CCCCCC(=O)N[C@H](CN2CCCC2)[C@H](O)c2ccc3c(c2)OCCO3)cc1 [Compound 160, 7-(4-tert-butylphenyl)-N((1R,2R)-1-(2,3-dihydrobenzo[β][1,4]dioxin-6-yl)-1-hydroxy-3-(pyrrolidin-1-yl)propan-2-yl)-7-oxoheptanamide]
≥ 7.00	CC(C)Oc1ccc(C(=O)CCC(=O)N[C@H](CN2CCCC2)[C@H](O)c2ccc3c(c2)OCCO3)cc1 [Compound 162, N-((1R,2R)-1-(2,3-dihydrobenzo[β][1,4]dioxin-6-yl)-1-hydroxy-3-(pyrrolidin-1-yl)propan-2-yl)-4-(4-isopropoxyphenyl)-4-oxobutanamide]
≥ 7.00	O=C(CCC(=O)c1ccc(C(F)(F)F)cc1)N[C@H](CN1CCCC1)[C@H](O)c1ccc2c(c1)OCCO2 [Compound 176, N-((1R,2R)-1-(2,3-dihydrobenzo[β][1,4]dioxin-6-yl)-1-hydroxy-3-(pyrrolidin-1-yl)propan-2-yl)-4-oxo-4-(4-(trifluoromethyl)phenyl)butanamide (2S,3S)-2,3-dihydroxysuccinate]
6.00 to 7.00	CCc1ccc(OCCC(=O)N[C@H](CN2CCCC2)[C@H](O)c2ccc3c(c2)OCCO3)cc1 [Compound 188, N-((1R,2R)-1-(2,3-dihydrobenzo[b][1,4]dioxin-6-yl)-1-hydroxy-3-(pyrrolidin-1-yl)propan-2-yl)-3-(4-ethylphenoxy)propanamide (2R,3R)-2,3-dihydroxysuccinate]
6.00 to 7.00	CCC(=O)c1ccc(OCCC(=O)N[C@H](CN2CCCC2)[C@H](O)c2ccc3c(c2)OCCO3)cc1 [Compound 189, N-((1R,2R)-1-(2,3-dihydrobenzo[b][1,4]dioxin-6-yl)-1-hydroxy-3-(pyrrolidin-1-yl)propan-2-yl)-3-(4-propionylphenoxy)propanamide (2R,3R)-2,3-dihydroxysuccinate]

Structure (SMILES)	pIC50
COc1ccc(OCCC(=O)N[C@H](CN2CCCC2)[C@H](O)c2ccc3c(c2)OCCO3)cc1 [Compound 61, N-((1R,2R)-1-(2,3-dihydrobenzo[β][1,4]dioxin-6-yl)-1-hydroxy-3-(pyrrolidin-1-yl)propan-2-yl)-3-(4-methoxyphenoxy)propanamide]	≥ 7.00

Same assay, conditions: Table 3 (title: IC 50 Values); read-out: IC50_uM_Mean

Structure (SMILES)	pIC50
O=C(Cc1ccc(OC(F)(F)F)cc1)N[C@H](CN1CCCC1)[C@H](O)c1ccc(Cl)s1 [Compound 492]	5.00 to 5.52
CCCCCCCC(=O)N[C@H](CN1CC[C@H](F)C1)[C@H](O)c1ccc2c(c1)OCCO2 [Compound 510]	5.00 to 5.52
CCCCCCCC(=O)N[C@H](CN1CCC[C@@H]1C)C(O)c1ccc2c(c1)OCCO2 (stereo partly drawn) [Compound 527]	5.52 to 6.00
COc1ccc(OCCC(=O)N[C@H](CN2CCC[C@H]2C)C(O)c2ccc3c(c2)OCCO3)cc1 (stereo partly drawn) [Compound 528]	5.52 to 6.00
CCCCCCCC(=O)N[C@H](CN1CCC[C@H]1C)C(O)c1ccc2c(c1)OCCO2 (stereo partly drawn) [Compound 530]	5.00 to 5.52
CCCCCCCC(=O)N[C@H](CN1CCC[C@H]1COC)C(O)c1ccc2c(c1)OCCO2 (stereo partly drawn) [Compound 534]	5.00 to 5.52
COC[C@@H]1CCCN1C[C@@H](NC(=O)CCOc1ccc(OC)cc1)C(O)c1ccc2c(c1)OCCO2 (stereo partly drawn) [Compound 535]	5.00 to 5.52
COC[C@H]1CCCN1C[C@@H](NC(=O)CCOc1ccc(OC)cc1)[C@@H](O)c1ccc2c(c1)OCCO2 [Compound 538]	5.00 to 5.52
COC[C@H]1CCCN1C[C@@H](NC(=O)CCCCCC(=O)c1ccc(OC)cc1)[C@@H](O)c1ccc2c(c1)OCCO2 [Compound 539]	5.00 to 5.52
CCCCCCCC(=O)N[C@H](CN1CCC[C@@H]1COC)[C@@H](O)c1ccc2c(c1)OCCO2 [Compound 540]	5.00 to 5.52
COc1ccc(C(=O)CCCCCC(=O)N[C@H](CN2[C@H](C)CC[C@@H]2C)[C@H](O)c2ccc3c(c2)OCCO3)cc1 [Compound 548]	5.52 to 6.00
CCCCCCCC(=O)N[C@H](CN1[C@H](C)CC[C@@H]1C)[C@H](O)c1ccc2c(c1)OCCO2 [Compound 549]	5.00 to 5.52
COc1ccc(OCCC(=O)N[C@H](CN2[C@H](C)CC[C@@H]2C)[C@H](O)c2ccc3c(c2)OCCO3)cc1 [Compound 550]	5.00 to 5.52
COc1ccc(OCCC(=O)N[C@H](CN2CCCC2(C)C)[C@@H](O)c2ccc3c(c2)OCCO3)cc1 [Compound 551]	5.00 to 5.52
COc1ccc(C(=O)CCCCCC(=O)N[C@H](CN2CCCC2(C)C)[C@@H](O)c2ccc3c(c2)OCCO3)cc1 [Compound 552]	5.52 to 6.00
CCCCCCCC(=O)N[C@H](CN1CCCC1(C)C)[C@@H](O)c1ccc2c(c1)OCCO2 [Compound 553]	5.00 to 5.52
O=C(CCCCS(=O)(=O)C1CCCCC1)N[C@H](CN1CCCC1)[C@@H](O)c1ccc2c(c1)OCCO2 [Compound 557]	5.00 to 5.52
Cc1nccn1C[C@@H](NC(=O)CCCCCC(=O)c1ccc(F)cc1)[C@@H](O)c1ccc2c(c1)OCCO2 [Compound 569]	5.00 to 5.52
CCCCCCCC(=O)N[C@H](CN1CC(OCCC)C1)[C@H](O)c1ccc2c(c1)OCCO2 [Compound 596]	5.00 to 5.52
COc1ccc(OCC[C@H](O)N[C@H](CN2C(C)CCCC2C)C(O)c2ccc3c(c2)OCCO3)cc1 (stereo partly drawn) [Compound 598]	5.00 to 5.52
COc1ccc(C(=O)CCCCCC(=O)N[C@H](CN2C(C)CCC[C@H]2C)[C@@H](O)c2ccc3c(c2)OCCO3)cc1 (stereo partly drawn) [Compound 602]	5.00 to 5.52
O=C(N[C@H](CN1CCCC1)[C@@H](O)c1ccc2c(c1)OCCO2)C1(C(F)(F)F)CCC1 [Compound 614]	5.00 to 5.52
O=C(CC(F)(F)F)N[C@H](CN1CCCC1)[C@@H](O)c1ccc2c(c1)OCCO2 [Compound 624]	5.00 to 5.52

Continued, values first:

pIC50	Structure (SMILES)
6.00 to 7.00	CCNC[C@@H](NC(=O)CCCCCC(=O)c1ccc(OC)cc1)C(O)c1ccc2c(c1)OCCO2 (stereo partly drawn) [Compound 467]
6.00 to 7.00	CCCCCCCC(=O)N[C@H](CN1CC[C@@H](F)C1)[C@H](O)c1ccc2c(c1)OCCO2 [Compound 504]
5.52 to 6.00	CCCCCCCC(=O)N[C@H](CN1CC[C@@H](O)C1)[C@@H](O)c1ccc2c(c1)OCCO2 [Compound 512]
≥ 7.00	CCCCCCCC(=O)N[C@H](CN1CC[C@H](O)C1)[C@@H](O)c1ccc2c(c1)OCCO2 [Compound 515]
6.00 to 7.00	CCCCCCCC(=O)N[C@H](CN1CC2CC2C1)[C@@H](O)c1ccc2c(c1)OCCO2 (stereo partly drawn) [Compound 517]
6.00 to 7.00	COc1ccc(C(=O)CCOCCC(=O)N[C@H](CN2CC[C@@H](O)C2)[C@H](O)c2ccc3c(c2)OCCO3)cc1 [Compound 518]
≥ 7.00	COc1ccc(C(=O)CCCCCC(=O)N[C@H](CN2CCC[C@@H]2C)C(O)c2ccc3c(c2)OCCO3)cc1 (stereo partly drawn) [Compound 525]
6.00 to 7.00	COc1ccc(OCCC(=O)N[C@H](CN2CCC[C@@H]2C)C(O)c2ccc3c(c2)OCCO3)cc1 (stereo partly drawn) [Compound 526]
≥ 7.00	COc1ccc(C(=O)CCCCCC(=O)N[C@H](CN2CCC[C@H]2C)C(O)c2ccc3c(c2)OCCO3)cc1 (stereo partly drawn) [Compound 529]
≥ 7.00	COc1ccc(C(=O)CCCCCC(=O)NC(CN2CC[C@@H](F)C2)[C@H](O)c2ccc3c(c2)OCCO3)cc1 (stereo partly drawn) [Compound 531]
6.00 to 7.00	COC[C@@H]1CCCN1C[C@@H](NC(=O)CCCCCC(=O)c1ccc(OC)cc1)C(O)c1ccc2c(c1)OCCO2 (stereo partly drawn) [Compound 533]
≥ 7.00	COc1ccc(C(=O)CCCCCC(=O)N[C@H](CN2CC3CC3C2)[C@@H](O)c2ccc3c(c2)OCCO3)cc1 (stereo partly drawn) [Compound 537]
6.00 to 7.00	O=C(CCCCCC1CCOCC1)N[C@H](CN1CCCC1)[C@@H](O)c1ccc2c(c1)OCCO2 [Compound 559]
≥ 7.00	O=C(CCCCCC(=O)c1ccc(F)cc1)N[C@H](CN1CC[C@@H](F)C1)[C@@H](O)c1ccc2c(c1)OCCO2 [Compound 565]
6.00 to 7.00	O=C(CCCCS(=O)(=O)C1CCCCC1)N[C@H](CN1CC[C@@H](F)C1)[C@@H](O)c1ccc(OCc2ccccc2)cc1 [Compound 572]
6.00 to 7.00	O=C(CCCCCC1CCOCC1)N[C@H](CN1CC[C@@H](F)C1)[C@@H](O)c1cccc(OCc2ccccc2)c1 [Compound 574]
6.00 to 7.00	O=C(CCCCOC1CCOCC1)N[C@H](CN1CC[C@@H](F)C1)[C@@H](O)c1ccc(CCc2ccccc2)cc1 [Compound 575]
6.00 to 7.00	CCCCOc1ccc([C@H](O)[C@@H](CN2CC[C@@H](F)C2)NC(=O)CCCCCCCOC)cc1 [Compound 584]
≥ 7.00	CCCCOc1ccc([C@H](O)[C@@H](CN2CC[C@H](O)C2)NC(=O)CCCCCCCOC)cc1 [Compound 586]
≥ 7.00	O=C(CCCCCC(=O)c1ccc(F)cc1)N[C@H](CN1CCCC1)[C@@H](O)c1ccc2c(c1)OCCO2 [Compound 628]
